Results on one molecule are retold here after patent US20190328755A1, “METHODS OF TREATING COMPLEX REGIONAL PAIN SYNDROME (CRPS) OR SYMPTOMS COMPRISING ADMINISTRATION OF […]” (GRUNENTHAL GMBH, priority 2018, published 2019).

In the test the test system is subjects with CRPS. The experiment in a line: Open-label single-arm Phase III trial of intravenous neridronic acid, average pain intensity (11-point NRS). It is filed as in vivo, human. Particulars: subjects with CRPS duration >2 years; 400 mg i.v. cumulative, 4 infusions of 240 min; interim look. The method, then:
A multi-site, open-label, single-arm, Phase III safety trial of intravenous neridronic acid at a cumulative dose of 400 mg was conducted in subjects with CRPS to investigate the safety and tolerability of intravenous neridronic acid in subjects with CRPS.
The trial product was supplied in glass vials, each containing 111.2 mg sodium neridronate hemihydrate (equivalent to 100 mg neridronic acid) in a total volume of 8 mL. For each infusion, before use, the trial product was diluted in sterile normal saline (0.9% NaCl, e.g., United States Pharmacopeia (USP) grade saline for injection) to a volume of approximately 500 mL and administered by slow intravenous infusion (240 minutes [maximum 260 minutes]) at day 1, day 4, day 7 and day 10, resulting in a total dose of 400 mg neridronic acid.
In addition, the trial provided supportive data on efficacy and long-term effectiveness of neridronic acid of 400 mg. Average, worst (both with a 24-hour recall period) and current pain intensity was measured at the trial visits using an 11-point numerical rating scale on a tablet computer.
The trial included an enrollment period lasting up to 60 days, a treatment period consisting of 4 infusions of neridronic acid over 10 days, and a follow-up period of approximately 50 weeks. […]

Regarding `NCCCCCC(O)(P(=O)(O)O)P(=O)(O)O` [neridronic acid], the “mean (standard deviation) change from baseline to Day 84 in average pain intensity (NRS)” value was −1.22 (2.197).
